Measured values reported in US20240197608A1, “ACETYL SH-HEXAPEPTIDE-5 AMIDE ACETATE FOR USE IN THE TREATMENT OF HAIR LOSS DISORDERS AND AS A HAIR CARE AGENT” (L[…], S.A., priority 2021, published 2024).

Tests used:
Type in all cases: cell-based
[1] = system: Insulin-like Growth Factor-1 (IGF1) gene expression; experiment: IGF1 gene expression in Human Follicle Dermal Papilla Cells (RT-qPCR); settings: HFDPC, 24 hours of incubation
Experimental: (§1) This assay determined the beneficial effect of the acetyl sh-hexapeptide-5 amide acetate in the reduction of the hair loss in an in vitro assay, using Dermal Papilla cells and analysed through gene expression analysis. In particular, this test determinate the effect of the acetyl sh-hexapeptide-5 amide acetate alone or in combination with tripeptide-10 citrulline after 24 hours of treatment of Human Follicle Dermal Papilla Cells (HFDPC), and through analysis of Fibroblast Growth Factor-7 (FGF7), Insulin-like Growth Factor-1 (IGF1), and Marker of Proliferation KI-67 (MKI67) gene expression, using Quantitative reverse transcription PCR (RT-qPCR) method.
(§2) Analytical equipment: Microscope, incubator, refrigerated centrifuge, statistical analysis software, micropipettes, pipettes, propipette, rack, quantifier Nano-Drop spectrophotometer, laminar flow hood, QuantStudio 5 (Applied Biosystem) Quantitative real-time PCR, vortex, Burker chamber, heating block, thermocycler, and consumables. […]
(§3) Methodology: Cell number and viability were determined using a Burker chamber and Trypan-Blue staining. […]
(§4) After 24 hours of incubation, the medium was removed, and cells were washed with PBS (phosphate buffered saline). […] 2 min (Ramp rate: 4.4° C./sec) 1 cycle PCR Analysis Mode: Quantification 95° C. […] All data were statistically analysed.

[2] = system: Marker of Proliferation KI-67 (MKI67) gene expression; experiment: MKI67 gene expression in Human Follicle Dermal Papilla Cells (RT-qPCR); settings: sample at 5% in culture medium, HFDPC, 24 hours of incubation
Experimental: as §1, §2, §3, §4

[3] = system: Fibroblast Growth Factor-7 (FGF7) gene expression; experiment: FGF7 gene expression in Human Follicle Dermal Papilla Cells (RT-qPCR); settings: HFDPC, 24 hours of incubation
Experimental: as §1, §2, §3, §4

## acetyl sh-hexapeptide-5 amide acetate [sample 1]
[1]; sample at 1% in culture medium
  IGF1 gene expression increase compared to the untreated control: 286.3±72.0%
[1]; sample at 5% in culture medium
  IGF1 gene expression increase compared to the untreated control: 300.2±45.0%
[2]
  MK167 gene expression increase compared to the untreated control: 100.4±25.2%
[3]; sample at 1% in culture medium
  Fibroblast Growth Factor-7 (FGF7) expression increase compared to the untreated control: 72.3±12.5%
[3]; sample at 5% in culture medium
  Fibroblast Growth Factor-7 (FGF7) expression increase compared to the untreated control: 108.0±8.3%
